{"source": "ChEMBL document CHEMBL4334483", "about": "“STING modulators: Predictive significance in drug discovery” (Eur J Med Chem, 2019)", "key": {"[1]": {"target": "Stimulator of interferon genes protein (Homo sapiens, UniProt Q86WV6)", "sequence (Q86WV6 whole entry)": "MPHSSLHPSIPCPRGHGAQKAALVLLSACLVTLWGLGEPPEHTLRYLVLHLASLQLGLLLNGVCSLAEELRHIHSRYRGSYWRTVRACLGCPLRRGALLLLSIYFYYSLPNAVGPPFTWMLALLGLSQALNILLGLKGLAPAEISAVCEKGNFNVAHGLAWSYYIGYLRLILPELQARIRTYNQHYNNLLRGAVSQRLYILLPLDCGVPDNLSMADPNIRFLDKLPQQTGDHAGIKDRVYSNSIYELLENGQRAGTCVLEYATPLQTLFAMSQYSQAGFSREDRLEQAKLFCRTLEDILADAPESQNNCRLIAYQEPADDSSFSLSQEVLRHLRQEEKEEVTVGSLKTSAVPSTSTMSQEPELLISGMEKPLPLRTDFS", "experiment": "Induction of STING in human PBMC assessed as increase in IFNbeta secretion"}, "[2]": {"target": "T1, Serine/threonine-protein kinase TBK1 (Homo sapiens, UniProt Q9UHD2)", "T1 sequence (Q9UHD2 whole entry)": "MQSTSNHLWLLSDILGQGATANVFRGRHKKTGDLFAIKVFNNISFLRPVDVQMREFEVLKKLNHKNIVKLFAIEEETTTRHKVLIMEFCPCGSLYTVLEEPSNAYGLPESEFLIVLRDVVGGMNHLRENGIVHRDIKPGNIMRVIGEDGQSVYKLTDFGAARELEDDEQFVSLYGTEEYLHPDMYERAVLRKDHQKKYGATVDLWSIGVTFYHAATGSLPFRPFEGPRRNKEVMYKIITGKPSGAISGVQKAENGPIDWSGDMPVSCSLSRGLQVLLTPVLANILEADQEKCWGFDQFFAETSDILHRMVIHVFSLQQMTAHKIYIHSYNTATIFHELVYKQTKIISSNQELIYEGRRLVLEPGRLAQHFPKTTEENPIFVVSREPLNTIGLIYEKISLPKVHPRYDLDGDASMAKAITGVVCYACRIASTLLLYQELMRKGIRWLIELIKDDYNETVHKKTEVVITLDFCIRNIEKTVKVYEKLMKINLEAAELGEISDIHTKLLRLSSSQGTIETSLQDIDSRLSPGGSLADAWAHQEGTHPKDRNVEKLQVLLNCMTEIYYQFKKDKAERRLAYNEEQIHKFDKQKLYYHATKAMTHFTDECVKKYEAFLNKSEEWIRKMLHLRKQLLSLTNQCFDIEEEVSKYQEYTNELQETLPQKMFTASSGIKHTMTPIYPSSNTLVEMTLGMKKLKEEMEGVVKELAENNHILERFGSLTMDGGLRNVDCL", "experiment": "Induction of TBK1 in human PBMC assessed as increase in […]"}, "[3]": {"experiment": "Inhibition of STING R232 mutant in mouse MEF cells assessed as increase in IFNbeta secretion"}, "[4]": {"species_on_record": "Homo sapiens", "experiment": "Selectivity index, ratio of EC50(app) for TBK1 in human PBMC […] in human PBMC"}}}
{"smiles": "CCn1nc(C)cc1C(=O)Nc1nc2cc(C(N)=O)ccc2n1CCCCn1c(NC(=O)c2cc(C)nn2CC)nc2cc(C(N)=O)ccc21", "values": [{"measurement": "EC50", "setting": "[1]", "result": 3.1, "unit": "µM"}, {"measurement": "EC50", "setting": "[2]", "result": 53.9, "unit": "µM"}]}
{"smiles": "CC[C@@H]1NC(=O)[C@@H]2[C@H](Cl)[C@H](Cl)CN2C(=O)[C@H](CC)NC(=O)C[C@H](c2ccccc2)NC(=O)[C@H](CO)NC1=O", "values": [{"measurement": "IC50", "setting": "[3]", "result": 3.42, "unit": "µM"}]}
{"smiles": "CCn1nc(C)cc1C(=O)/N=c1\\[nH]c2cc(C(N)=O)ccc2n1CCCCn1/c(=N/C(=O)c2cc(C)nn2CC)[nH]c2cc(C(N)=O)ccc21", "values": [{"measurement": "Ratio EC50", "setting": "[4]", "result": 18}]}
